Data: paper PMC7796031, “Studies of Coumarin Derivatives for Constitutive Androstane Receptor (CAR) Activation” (Molecules, 2020)

What was measured:
[1] = target: T1, Constitutive androstane receptor (CAR) (Homo sapiens, UniProt Q14994); experiment: In vitro CAR activation screening assay (UGT1A1 promoter gtPBREM-pGL4 luciferase reporter in Hep3B-gtPBREM cells); assay type: cell-based
T1 construct: The pGL4-gtPBREM plasmid was transfected into Hep3B cells; endogenous in cells
T1 sequence (Q14994 1-352): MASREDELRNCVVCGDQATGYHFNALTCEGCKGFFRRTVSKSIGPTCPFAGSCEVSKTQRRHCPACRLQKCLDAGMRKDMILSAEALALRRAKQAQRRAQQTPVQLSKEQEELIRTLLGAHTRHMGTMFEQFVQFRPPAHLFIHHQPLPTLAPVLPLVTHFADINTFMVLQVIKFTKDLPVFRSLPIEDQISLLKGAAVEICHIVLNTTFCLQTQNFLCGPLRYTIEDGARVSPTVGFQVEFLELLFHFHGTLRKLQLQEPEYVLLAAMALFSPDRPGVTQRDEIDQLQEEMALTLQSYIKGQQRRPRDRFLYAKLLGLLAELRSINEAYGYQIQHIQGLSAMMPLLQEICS
Procedure, shortened: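 Reporter: Hep3B cells stably carrying the UGT1A1 gtPBREM promoter in pGL4 luciferase (G418-selected), seeded at 1.5×10^5 cells/well overnight and then exposed to compounds at 10 μM for several hours (under 8 h). Luminescence of equal lysate amounts served as the CAR activation read-out. CITCO and scoparone served as reference agonists, and shCAR-transfected cells were used in follow-up.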

UGT1A1 = experiment: Protein expression of UGT1A1 (western blot); assay type: cell-based, human
Procedure: 1 × 10^6 cells were seeded in a 10 cm plate, incubated at 37 °C for overnight and treated with various concentrations of compounds for the indicated times. After incubation, the culture medium was removed and washed twice with 2 mL ice-cold 1× PBS. Three hundred μL of protein lysis buffer (150 mM NaCl, 50 mM Tris-HCl (pH 7.4), 1% SDS, 1% Triton X-100, 1 mM PMSF) was added into each plate, scraped with a rubber policeman, collected into a premarked microtube and the incubated in ice for 1 h, sonicated by Ultrasonic Cell Disruptor for three time at 5 s each. The cell lysated was cleared by centrifugation at 12,000× g for 15 min at 4 °C. Supernatants were transferred into a fresh marked microtube and stored at −20 °C for future use.
Protein concentration of each sample was determined using a BCA Protein Assay Kit (Pirece®, Thermo Scientific). Different percentages of SDS-PAGE gels were prepared according to the molecular size of proteins of interest. After complete polymerization of stacking gels, each sample with equal amount of total protein was separated in polyacrylamide gels (stacking gel: 50 v, 60 min; separating gel: 100 v, 60 min). After separating, wet-transfer method was utilized to transfer proteins onto the PVDF membrane. The gels were assembled in the transfer sandwich and put in a transfer tank filled with transfer buffer (25 mM glycine, 0.15% ethanolamine, 20% methanol). The electro-transfer was performed at the voltage of 100 volt for 80 min at 4 °C. After transfer, PVDF-membrane was blocked with 5% BSA in 1× TBS-Tween at room temperature for 1 h. Membrane was washed with 10 mL 1× TBS-Tween three times and incubated with primary antibodies overnight at 4 °C with gentle agitation. After primary antibody was removed, the membrane was washed three times with 10 mL 1× TBS-Tween for 10 min at room temperature with constant shaking. […] The emitted fluorescence from the membrane was caught on a LAS-4000 biomolecule imager (FUJI.).

SMILES | luciferase activity ([1]; assay validation, positive control, indirect agonist) | protein expression of UGT1A (CAR downstream gene) (UGT1A1; Figure 2, after scoparone or CITCO treatment) | increased CAR activation fold ([1]; 10 μM, compared to scoparone) [%] | activation at 10 µM ([1]; Table 2, 10 μM, (luminescence of compound − luminescence of scoparone)/luminescence of scoparone × 100%, read-out: CAR Activation Fold) [%] | UGT1A1 protein level (UGT1A1; Hep3B)
COc1cc2ccc(=O)oc2cc1OC [Compound 39, scoparone] | enhance luciferase activity | upregulated | – | – | –
CC(C)=CCOc1cc2ccc(=O)oc2cc1OCC=C(C)C [Compound 50, 6,7-diprenoxycoumarin] | – | – | 50 | 50 | not significantly increased
